Measurements from patent US20220008401A1, “COMPOSITIONS AND METHODS FOR TREATING PULMONARY DISEASE WITH MATRIX METALLOPROTEINASE INHIBITORS” (DARSHA LLC, priority 2019, published 2022).

Experiments:
[1] = Presence of aerosolized Compound 1 in lung of LPS-injured mice; type: in vivo, C57BL/6J mice; conditions: single aerosolized dose 35 mg/kg, one hour following nebulization
Experimental: (§1) MMP 9 was selected as a target as it is a well-established mediator of inflammation in lung injury. 12-week-old male C57BL/6J mice were intranasally instilled with LPS (1.5 mg/kg of 1 mg/ml solution in sterile PBS). 24 hours later, these mice received a single dose of aerosolized MMP inhibitor (Compound 1, dissolved in PBS, 35 mg/kg) or PBS alone. One hour following nebulization, the mice were sacrificed and assessed for MMP activity in both the bronchoalveolar lavage fluid (BALF) and lung tissue homogenate obtained from treated mice. One hour following nebulization of Compound 1, the presence of the aerosolized Compound 1 in the lung was confirmed at concentrations >100 ng/g of tissue. MMP activity in BALF was determined using a commercially available MMP 9 Quantikine assay from R&D systems.

[2] = test system: LPS injured mice; assay: FITC-albumin BALF:serum ratio (vascular permeability/edema), LPS-injured mice, single inhaled dose; type: in vivo, C57BL/6J mice; conditions: LPS 1.5 mg/kg; 24 hours later single aerosolized dose 35 mg/kg; sacrifice one hour after; n=6/group (control 0.44, LPS 1.1)
Experimental: We next determined if inhaled Compound 1 attenuated specific features of acute inflammatory lung injury that were also observed in response to LPS. Again, 12-week-old male C57BL/6J mice were intranasally instilled with LPS (1.5 mg/kg of 1 mg/ml solution in sterile PBS). 24 hours later, these mice received a single dose of aerosolized MMP inhibitor (Compound 1, dissolved in PBS, 35 mg/kg) or PBS alone and a tail vein injection of FITC labeled albumin (FITC-albumin). One hour following nebulization, the mice were sacrificed. The left lung was fixed in formalin from each animal, paraffin embedded, sectioned and stained with H&E to examine histological features indicative of lung injury. These were achieved by visually scoring each slide based on a lung injury scoring system developed by the American Thoracic Society for animal models of inflammatory lung injury.
Tissue edema was assessed using two methods. First, serum and BALF fluid were collected from mice and FITC-albumin levels were measured in each using a fluorescent microplate reader. Fluid leakage into injured lungs is indicative of increased vascular permeability and could be indicative of edema. A greater fluid leakage would also be characterized by increased levels of FITC-albumin in the BALF. To determine the level of vascular permeability and edema, the ratio of BALF FITC-albumin to serum FITC-albumin was calculated. […]

[3] = target: MMP 9 (Mus musculus, UniProt P41245); assay: MMP 9 Quantikine assay on BALF of LPS-injured mice, single inhaled dose; type: in vivo, C57BL/6J mice; set-up: assessed for MMP activity in both the bronchoalveolar lavage fluid (BALF) and lung tissue homogenate obtained from treated mice; from tissue; host or cells: bronchoalveolar lavage fluid (BALF) of LPS-injured C57BL/6J mice; conditions: LPS 1.5 mg/kg intranasal; 24 hours later single aerosolized dose 35 mg/kg; sacrifice one hour after nebulization
Sequence of MMP 9 (P41245 108-730): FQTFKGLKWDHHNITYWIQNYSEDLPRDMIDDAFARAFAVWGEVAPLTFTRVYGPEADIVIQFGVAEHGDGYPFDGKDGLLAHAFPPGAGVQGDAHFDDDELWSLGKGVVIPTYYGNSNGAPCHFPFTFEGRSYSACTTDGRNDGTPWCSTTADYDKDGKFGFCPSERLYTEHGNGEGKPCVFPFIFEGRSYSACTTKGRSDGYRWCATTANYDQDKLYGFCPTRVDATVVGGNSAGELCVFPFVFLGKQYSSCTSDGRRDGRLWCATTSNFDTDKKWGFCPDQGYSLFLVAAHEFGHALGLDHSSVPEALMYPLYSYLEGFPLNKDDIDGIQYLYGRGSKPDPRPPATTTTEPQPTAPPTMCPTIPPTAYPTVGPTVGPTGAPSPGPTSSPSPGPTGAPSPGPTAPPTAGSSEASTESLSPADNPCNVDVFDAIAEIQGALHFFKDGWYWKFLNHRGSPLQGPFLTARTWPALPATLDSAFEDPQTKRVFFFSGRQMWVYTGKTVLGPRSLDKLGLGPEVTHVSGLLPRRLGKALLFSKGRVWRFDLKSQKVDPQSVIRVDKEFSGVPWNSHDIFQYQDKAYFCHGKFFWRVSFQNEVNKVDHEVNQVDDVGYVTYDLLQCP
Experimental: as §1

[4] = test system: LPS injured mice; assay: Lung wet:dry weight ratio, LPS-injured mice, q6h x 4 doses; type: in vivo; conditions: LPS then Compound 1 every 6 hours for 4 doses; right lung; n=5 (LPS alone 19.44±1.6, PBS 7.5±0.12)
Experimental: Based on the data, the effect of a 6 hour dosing interval (q6h) of Compound 1 on injured mice lung was explored. FIG. 8B schematizes the experimental LPS injury/Compound 1 treatment workflow utilized unless otherwise indicated. Briefly, mice were nasally instilled with LPS (1.5 mg/kg) followed by initiation of Compound 1 treatment 24 hours later (i.e., after a 24 hours rest period). Four doses of Compound 1 (12 mg/kg) were administered via nebulizer every 6 hours to maintain a constant presence of compound in the lung. PBS was administered as a control. Mice were sacrificed 6 hours following the fourth dose. A major feature of ALI/ARDS is non-cardiogenic pulmonary edema resulting in profound hypoxemia. […] We next investigated if attenuation of edema occurred with the alternative treatment schedule where LPS-injured mice were treated with Compound 1 every 6 hours for 4 doses. Total lung edema was determined by assessing lung wet:dry ratios under each experimental condition. Following completion of Compound 1 treatment, the right lung was removed and immediately weighed followed by desiccation for 72 hours and weighed a second time to determine the dry weight. Wet:dry weight ratios were then calculated.

[5] = test system: caspase 3; assay: Western blot for cleaved caspase 3 in lung homogenates of LPS-injured mice; type: in vivo
Experimental: It was also examined if Compound 1 would reduce the levels of apoptosis associated with injury by LPS. Because the time line of apoptosis takes hours, an additional set of mice were injured with LPS (1.5 mg/kg of 1 mg/ml solution in sterile PBS) followed by initiation of treatment with Compound 1 twenty four hours later. The mice received four doses of Compound 1 (one dose every six hours over a total duration of 24 hours in accordance with the treatment schedule described below with reference to FIG. 8B). The mice were sacrificed and their lungs were harvested and assessed for caspase 3 activity by western blot for cleaved caspase 3 and a caspase 3/7 activity assay obtained from ThermoFisher.
FIG. 5A is a representative western blot of lung homogenates that were equalized for protein content (i.e., normalized to actin) and probed for whole and cleaved caspase 3. Each lane represents a lung homogenate sample (40 μg) from an individual mouse. Lane 510 depicts a lung homogenate sample from a control mouse that was not administered LPS or Compound 1. Lanes 520 and 530 depict lung homogenate samples from two mice that were administered LPS but were not treated with Compound 1. […]
FIG. 5B is the relative densitometric quantification of western blots for cleaved caspase 3: whole caspase ratio. […]

[6] = test system: neutrophils; assay: MTT assay of neutrophil viability; type: cell-based, human; conditions: 1 hour exposure, high and low concentrations
Experimental: To ensure the observed effects were not a result of reduced neutrophil viability, an MTT assay was utilized. Neutrophils were exposed to Compound 1 for 1 hour followed by addition of MTT to the culture medium for 30 minutes. Cells were then solubilized in DMSO and the absorbances were read on a microplate reader.

butanamide, N-hydroxy-2-[[(4-hydroxyphenyl)sulfonyl](3-pyridinylmethyl)amino]-3-methyl, hydrochloride, (2R) [Compound 1]
concentration of aerosolized Compound 1 in the lung [1]: > 100 ng/g of tissue
ratio of BALF FITC-albumin to serum FITC-albumin [2]: 0.49
MMP 9 activity in BALF [3]: inhibits MMP 9 activity in the BALF
wet:dry weight ratio [4]: 11.80±0.86
caspase 3 activation (cleaved caspase-3, western blot) ([5]; LPS 1.5 mg/kg, four inhaled doses, one every six hours, starting 24 hours after LPS, lung homogenate): absent or reduced
cleaved:whole caspase 3 ratio (densitometry) ([5]; LPS-CGS group, four inhaled doses q6h starting 24 hours after LPS, n≥5 (LPS-PBS 2.57±1.15, PBS-PBS 0.25±0.15)): 0.59±0.18 AU
neutrophil viability (MTT, reductive capacity) [6]: no significant effect on neutrophil viability
